# Conditions: buffer; pH 7.4; 200.0 µM
row,Structure (SMILES),solubility kinetic [µg/mL]
1,CN(C)C(=O)C1CCC(=O)N1Cc1cccs1 (centres undefined),> 37.8
2,COc1ccc(C(=O)NC(C)c2ccc(-n3ccnc3)cc2)c(OC)c1 (centres undefined),> 52.7
3,O=C1c2cccc([N+](=O)[O-])c2C(=O)N1C1CCCCC1,17.7
4,O=[N+]([O-])c1ccc(NCCc2ccccc2)c(Br)c1,0.7
5,O=C(c1ccccc1Cl)N1CCC(n2cccc2)CC1,42.2
6,O=C(Nc1cccc2ccccc12)c1ccc([N+](=O)[O-])cc1,1
7,O=C(NCC(=O)N1CCN(c2ccccc2O)CC1)c1ccccc1,49.4
8,COc1ccc(OC)c(NC(=O)NCc2cccnc2)c1,> 43.1
9,O=C(Nc1ccc(-c2n[nH]c(=S)o2)cc1)c1ccccc1,> 44.6
10,CCCn1c(N2CCN(C(=O)/C=C/C(=O)O)CC2)nc2ccccc21,> 51.4
11,Cc1ccc(F)cc1NC(=O)C1C2CCC(O2)C1C(=O)O (centres undefined),> 44
12,CCOC(=O)C1CCN(C(=O)/C(=C/c2ccccc2)NC(=O)c2ccccc2)CC1,> 61
13,CCCOc1ccc(NC(=O)CC2Nc3ccccc3NC2=O)cc1 (centres undefined),2.7
14,O=C(Nc1cccnc1)C1=NN(C2CCS(=O)(=O)C2)C(=O)CC1 (centres undefined),> 50.5
15,COC(=O)c1ccc(OCC(O)CNC2CCCC2)cc1.Cl (centres undefined),47.7
16,Cc1cc(S(=O)(=O)Nc2c(C)nn(C)c2C)c(Cl)cc1Cl,> 52.2
17,CSc1ncc(Cl)c(C(=O)Nc2ccc(NC(C)=O)cc2)n1,18.6
18,CCC(=O)c1ccc(OCC(=O)Nc2ccc3c(c2)OCCO3)cc1,12.2
19,CCn1c(NCc2ccc(OC)cc2)nc2ccccc21,> 42.2
20,CC[C@H](C)[C@H](NC(N)=O)C(=O)Nc1ccc2c(c1)OCO2,38.6
21,CCN(CC)c1ccc2c(Nc3ccccc3)c(C=O)c(=O)oc2c1,< 0.4
22,C=CCn1c(O)c(C2=c3ccccc3=NC2=O)c2ccccc21,< 0.3
23,CC(=O)C1=C(C)NC(=S)NC1c1cc([N+](=O)[O-])ccc1O (centres undefined),> 46.1
24,Cc1c(C(=O)O)c(=O)n(-c2ccccc2)n1-c1ccccc1,> 44.1

row,Structure (SMILES),solubility kinetic [µg/mL]
1,C=CCNC(=O)COC(=O)COc1ccc(Cl)cc1,> 42.6
2,O=C(COC(=O)c1ccccc1OCc1ccc(Cl)cc1)NCC1CCCO1 (centres undefined),> 60.6
3,CSc1ncc(Sc2ccccc2)c(C(=O)O)n1,38.4
4,O=C(Nc1ccc2c(c1)OCCO2)C1CCCC1,> 37.1
5,Cc1cccc(OC(C)C(=O)Nc2nccs2)c1 (centres undefined),37.9
6,CC(C)(C)c1cc(NC(=O)c2ccco2)no1,> 35.1
7,CC1CCN(C(=O)C(C)Cl)CC1 (centres undefined),11.1
8,Cc1ccc(SCCC(=O)N/N=C/c2cccnc2)cc1,> 44.9
9,COc1cc(N)ccc1NC(=O)c1cc2ccccc2o1,> 42.3
10,CC(=O)Nc1ccc(NC(=O)COC(=O)c2ccc(S(=O)(=O)NCc3ccco3)cc2)cc1,8.9
11,O=C(COC(=O)c1cccnc1Cl)NCc1ccco1,> 44.2
12,O=C(CN1CCCCCC1)Nc1ccc(Br)cc1[N+](=O)[O-],0.4
13,O=C(Nc1ccc(F)cc1)c1ccc(S(=O)(=O)N2CCCC2)cc1,4.4
14,CCc1ccc(NC(=O)c2ccccc2SC)cc1,2.4
15,O=C(NC1CC1)c1ccc(NS(=O)(=O)c2ccccc2)cc1,> 47.5
16,Brc1ccc2c(c1)[C@H]1OCC[C@H]1[C@@H](c1cccs1)N2,1.4
17,COc1ccc(CCNC(=O)COC(=O)C2CC2)cc1OC,> 46.1
18,COCCNc1nnc(Cc2ccccc2)c(=O)[nH]1,> 39
19,CCc1cn(C2CC(O)C(CO)O2)c(=O)[nH]c1=O (centres undefined),> 38.4
20,O=C(Nc1cccnc1Cl)c1cccs1,> 35.8
21,CCCCC(=O)N=c1sc2cc([N+](=O)[O-])ccc2n1C,< 0.2
22,COCC(=O)Nc1nc(-c2ccc([N+](=O)[O-])cc2)cs1,7.3
23,CN[C@@H]1CC[C@H](c2ccc(Cl)c(Cl)c2)c2ccccc21,28.8
24,CC(=O)OCc1c(-c2ccccc2)c2cc([N+](=O)[O-])ccc2n1C,0.7

row,Structure (SMILES),solubility kinetic [µg/mL]
1,COc1ccccc1Nc1nc(Cl)c(C=O)s1,12.1
2,O=C(O)C1C2C=CC(O2)C1C(=O)NCCc1cccc(Cl)c1 (centres undefined),> 48.3
3,Cc1ccc(NC(=O)O/N=C/c2ccc(Br)cc2)cc1,1.4
4,Cc1ccccc1NC(=O)c1ccco1,> 30.2
5,COC(=O)C(Cc1cccc(C)n1)(c1ccccc1)c1ccccc1,14.2
6,COc1ccccc1-c1nc(C#N)c(NCCCn2ccnc2)o1,> 48.5
7,CCOC(=O)c1c(C)[nH]c(C)c1C(=O)COC(=O)/C=C/c1ccccc1[N+](=O)[O-],6
8,Cc1ccc(N2C(=O)CC(C)(C)CC2=O)cc1Cl,12.5
9,C/C(CC(=O)Nc1cccc(F)c1)=N\NC(=O)c1ccncc1,> 47.1
10,CCOc1ccc(CCNC(=O)c2cnc(C)cn2)cc1OCC,> 49.4
11,CCC(=O)Nc1ccc(C=C(C(C)=O)C(C)=O)cc1,> 38.9
12,Cc1ccc(N2CCN(S(=O)(=O)N3CCCCC3)CC2)c(C)c1,3.8
13,Cc1cc(OC(=O)c2ccc(F)cc2)c([N+](=O)[O-])c(=O)[nH]1,43.2
14,Cn1cc(CCC(=O)NCCCc2ccccc2)c2ccccc21,25.8
15,Cc1cccc(NC(=O)N2CCC(NC(=O)c3ccco3)CC2)c1,> 49.1
16,CCC(=O)N1CCc2nc(-c3ccccc3)sc2C1,> 40.9
17,N#Cc1ccccc1/C=C/C(=O)N1CCOCC1,> 36.3
18,O=C(c1c(F)cccc1Cl)N1CCN(c2ccccn2)CC1,> 48
19,Cc1onc(-c2ccccc2)c1C(=O)N(C)CC(=O)Nc1ccc(F)c(F)c1F,> 60.5
20,Cn1cccc1C(=O)NCC(c1ccc(F)cc1)N1CCOCC1 (centres undefined),47.3
21,COn1c(=O)c(-c2ccc(C)cc2)[n+]([O-])c2ccccc21,> 42.3
22,O=C(COc1ccc(Cl)cc1)NCCCNC(=O)c1cnccn1,> 52.3
23,Cl.O=[N+]([O-])c1ccccc1OCC(O)CNC1CCCC1 (centres undefined),46.2
24,COC(=O)CSc1nc(C)c2c(n1)CCCC2,37.6

row,Structure (SMILES),solubility kinetic [µg/mL]
1,CC(C)(C)NC(=O)[C@H]1CC[C@H]2[C@@H]3CC[C@H]4NC(=O)C=C[C@]4(C)[C@H]3CC[C@]12C,52.8
2,NC(=O)C1CCN(CC(=O)Nc2ccc3c(c2)OCCO3)CC1,> 47.9
3,O=C(CNC(=O)c1ccccc1)OCC(=O)c1ccccc1Cl,> 49.8
4,CCc1ccccc1NC(=O)Nc1ccsc1C(=O)OC,16.2
5,Cc1cc(C)cc(N2CCCn3c2nc2c3c(=O)[nH]c(=O)n2C)c1,3.3
6,CN(C)CCOC(=O)NCC12CC3CC(CC(C3)C1)C2.Cl,> 47.5
7,Cc1ccc(NC(=O)CNC(=O)c2ccc3c(c2)OCO3)nc1,20.5
8,Cc1ccccc1NC(=O)C(=O)c1cn(C)c2ccccc12,< 0.3
9,Cc1ccc(NC(=O)Nc2ccc3c(c2)CCC3)cc1,< 0.3
10,COc1ccc(NC(=O)C2CC(c3ccccc3O)=NO2)cc1OC (centres undefined),1.5
11,CCc1c(C)sc(NC(=O)c2cc(C(C)C)on2)c1C#N,3.4
12,Cl.c1csc(CNCc2ccncc2)c1,> 36.1
13,CCCCCCCCNC1=CC(=O)CC(C)(C)C1,12.5
14,O=C(CN1C(=O)NC2(CCCCC2)C1=O)Nc1ccc(N2CCCCC2)cc1,10.9
15,COc1ccc(-c2ccc3ccccc3n2)cc1,< 0.5
16,N=C(N=C(N)N)N1CCc2ccccc21,> 30.5
17,CC(C)=CC(=O)OCC(=O)Nc1cc(C)ccc1C,15
18,Cc1cccc(NC(=O)COc2ccc3c(c2)CCC3)n1,2.4
19,O=C1CN(C(=O)CSc2ccccn2)c2ccccc2N1,> 44.9
20,Cc1ccc2c(c1)sc1nc(=O)n(-c3ccccc3)c(=O)n12,2.3
21,C=CCc1ccccc1OCC(O)CNC(=O)c1ccccc1C(=O)O (centres undefined),> 53.3
22,CS(=O)(=O)c1ccc([C@@H](O)[C@@H](CO)NC(=O)C(Cl)Cl)cc1,> 53.4
23,CC(C)[C@H](NC(=O)c1ccccc1F)C(=O)Nc1ccc(F)c(F)c1,4.9
24,COc1cc(NS(=O)(=O)c2ccc(NC(=S)NC(C)=O)cc2)nc(OC)n1,> 61.7

row,Structure (SMILES),solubility kinetic [µg/mL]
1,CSc1nc2c(c(=O)[nH]c(=O)n2C)n1CCCc1ccccc1,24
2,Cc1cc(C)nc(NC(=O)c2cccs2)c1,22.6
3,C/C(=N\OCc1cccc(C(=O)O)c1)c1ccc(Cl)cc1,> 45.6
4,CC(=O)n1c2ccccc2c2nc3ccccc3nc21,1.1
5,CC1c2cccn2CCN1S(=O)(=O)c1ccc(F)cc1 (centres undefined),> 44.2
6,CCCCNC(=S)N1CCN(c2ccc(C(C)=O)cc2)CC1,8
7,CC1(NC(=O)Cc2c(F)cccc2Cl)CCS(=O)(=O)C1 (centres undefined),> 48
8,O=C(O)c1nc(NCCc2ccccc2)ncc1Cl,> 41.7
9,COc1ccc2nc(NC(=O)c3ccccc3O)sc2c1,0.7
10,CCCCCCCCCCCCCCCC[N+](C)(C)CC.[Br-],34.5
11,CC(C)(C)NC(=O)C1CC(=O)N(CCc2ccc(F)cc2)C1 (centres undefined),> 46
12,CCOC(=O)C1CCN(C(=O)c2cccnc2Oc2ccccc2)CC1,50.9
13,OCc1c[nH]c2ccccc12,7
14,COCCN1CCn2c(nc3cc(NS(C)(=O)=O)ccc32)C1,> 48.7
15,O=C(CNC(=O)c1ccc(Cl)cc1)c1ccccc1,6
16,CN(C(=O)C1CCN(S(=O)(=O)c2ccccc2[N+](=O)[O-])CC1)C1CCCCC1,52.9
17,O=C(OCC(=O)N1CCOCC1)c1ccccc1Br,> 49.2
18,COc1ccc(Cl)cc1CN1CCOCC1.Cl,> 41.7
19,COc1ccc(N2CCN(C(=O)c3cccc(NS(=O)(=O)c4cccc(F)c4)c3)CC2)cc1,52.8
20,O=C(Cc1ccccc1)NCc1ccccn1,> 33.9
21,CCOC(=O)C1CCCN(C(=O)COC(=O)c2cccs2)C1 (centres undefined),47.6
22,CC(O)c1nc2cc([N+](=O)[O-])ccc2n1Cc1ccccc1 (centres undefined),6.9
23,CC(=O)c1cccc(S(=O)(=O)Nc2ccccc2N2CCOCC2)c1,> 54.1

# From PubChem BioAssay AID1996
